Measurements from the supplement of paper PMC10307832.

Legend:
Test in all cases: relative viability (nuclei count vs DMSO), 5 days (fraction); higher = more cells survive
TPCA-1 + Dasatinib = compound: C1=CC(=CC=C1C2=CC(=C(S2)NC(=O)N)C(=O)N)F [TPCA-1] + Cc1nc(Nc2ncc(C(=O)Nc3c(C)cccc3Cl)s2)cc(N2CCN(CCO)CC2)n1 [Dasatinib] (partner 0.075 µM)
Procedure, shortened: (§1)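 Relative viability is defined as nuclei in treated wells over nuclei in vehicle wells. Duplicate plates were run and medians reported. Lung cancer cell lines in 1536-well plates were dosed by pin tool one day after seeding, with one drug or with a fixed anchor-drug dose plus five library-drug doses (not always all listed) in √10 steps, and nuclei were counted after 5 days.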

Lestaurtinib + Foretinib = compound: C[C@]12O[C@H](C[C@]1(O)CO)n1c3ccccc3c3c4c(c5c6ccccc6n2c5c31)CNC4=O [Lestaurtinib] + COc1cc2c(Oc3ccc(NC(=O)C4(C(=O)Nc5ccc(F)cc5)CC4)cc3F)ccnc2cc1OCCCN1CCOCC1 [Foretinib] (partner 0.25 µM)
Procedure, shortened: as §1

[1] = compound: C1/C(=C\C2=CC=CS2)/C(=O)/C(=C/C3=CC=CS3)/C1 + Cc1cc(Nc2cc(N3CCN(C)CC3)nc(Sc3ccc(NC(=O)C4CC4)cc3)n2)n[nH]1 [Tozasertib] (partner 0.1 µM)
Procedure, shortened: as §1

TPCA-1 + Decitabine = compound: C1=CC(=CC=C1C2=CC(=C(S2)NC(=O)N)C(=O)N)F [TPCA-1] + Nc1ncn([C@H]2C[C@H](O)[C@@H](CO)O2)c(=O)n1 [Decitabine] (partner 2 µM)
Procedure, shortened: as §1

What does the source list for UMC-11?
relative viability (TPCA-1 + Dasatinib; first compound 0.04 µM): 0.494; relative viability (TPCA-1 + Dasatinib; first compound 0.1265 µM): 0.443; relative viability (TPCA-1 + Dasatinib; first compound 0.4 µM): 0.494; relative viability (TPCA-1 + Dasatinib; first compound 1.265 µM): 0.457; relative viability (TPCA-1 + Dasatinib; first compound 4 µM): 0.222; relative viability (Lestaurtinib + Foretinib; first compound 0.005 µM): 1.03; relative viability (Lestaurtinib + Foretinib; first compound 0.01581 µM): 0.891; relative viability (Lestaurtinib + Foretinib; first compound 0.05 µM): 0.46; relative viability (Lestaurtinib + Foretinib; first compound 0.1581 µM): 0.273; relative viability (Lestaurtinib + Foretinib; first compound 0.5 µM): 0.175; relative viability ([1]; first compound 0.2 µM): 0.204; relative viability ([1]; first compound 0.6325 µM): 0.192; relative viability ([1]; first compound 2 µM): 0.212; relative viability ([1]; first compound 6.325 µM): 0.202; relative viability ([1]; first compound 20 µM): 0.205; relative viability (TPCA-1 + Decitabine; first compound 0.04 µM): 0.584; relative viability (TPCA-1 + Decitabine; first compound 0.1265 µM): 0.501; relative viability (TPCA-1 + Decitabine; first compound 0.4 µM): 0.792; relative viability (TPCA-1 + Decitabine; first compound 1.265 µM): 0.613; relative viability (TPCA-1 + Decitabine; first compound 4 µM): 0.439
